Source: BindingDB's records for patent US20250346592 (Celgene, 2025)

Biological target: Protein-arginine deiminase type-4 (Homo sapiens, UniProt Q9UM07)
Assay: RFMS2 Assay
Method: Final Assay Conditions:Total reaction volume: 25 μlAssay buffer: […] pH 7.4, 200 mM NaCl, 2 mM CaCl2, 5 mM DTT35 nM recombinant human PAD4500 μM TSTGGRQGSHH peptide1.2% DMSOStop solution: 10% formic acidReaction mixtures were incubated at room temperature for 30 minutes. 10 μl each of the reaction mixtures was then mixed with 40 μl of 10% formic acid in a microtiter plate. The plate was frozen at −80° C. before shipping out on dry ice for RapidFire mass spectroscopy analysis.Thawed samples were loaded onto the Rapid Fire 300 system (Agilent) wherein they were first sipped for 250 ms and then loaded onto a Agilent “C” (C18) cartridge using a mobile phase of water containing 0.09% formic acid/0.01% trifluoroacetic acid for 3000 ms desalting flowing at a rate of 1.5 ml/min. Once the samples were loaded and washed, a mobile phase of acetonitrile containing 0.09% formic acid/0.01% trifluoroacetic acid was used to elute the samples directly onto a Sciex API4000 triple quadrupole mass spectrometer for 3000 ms at a flow rate of 1.25 ml/min.

Chain of Protein-arginine deiminase type-4 (Q9UM07 whole entry): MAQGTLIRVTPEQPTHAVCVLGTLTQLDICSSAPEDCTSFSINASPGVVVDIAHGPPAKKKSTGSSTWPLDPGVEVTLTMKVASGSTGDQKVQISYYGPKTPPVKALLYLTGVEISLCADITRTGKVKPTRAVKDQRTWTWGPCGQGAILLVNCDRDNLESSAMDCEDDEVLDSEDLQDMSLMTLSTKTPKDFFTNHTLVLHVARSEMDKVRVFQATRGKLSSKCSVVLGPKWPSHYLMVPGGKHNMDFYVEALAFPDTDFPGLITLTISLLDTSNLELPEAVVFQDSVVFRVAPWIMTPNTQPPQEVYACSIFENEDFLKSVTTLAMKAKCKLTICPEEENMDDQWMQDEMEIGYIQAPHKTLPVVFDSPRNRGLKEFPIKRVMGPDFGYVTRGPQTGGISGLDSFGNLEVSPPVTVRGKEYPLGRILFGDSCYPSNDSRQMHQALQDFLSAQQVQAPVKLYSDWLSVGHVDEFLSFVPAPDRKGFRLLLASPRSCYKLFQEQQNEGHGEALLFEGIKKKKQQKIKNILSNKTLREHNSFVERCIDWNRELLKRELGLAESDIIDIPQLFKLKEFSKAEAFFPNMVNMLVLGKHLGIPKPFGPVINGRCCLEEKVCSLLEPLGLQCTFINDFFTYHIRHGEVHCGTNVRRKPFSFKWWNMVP

IC50: > 1000 nM
Compound: COc1cccc2cc(-c3nc4cc5c(cc4n3C)CCN(C[C@H](N)CF)C5=O)n(CC(=O)N(C)C)c12 [US20250346592, Example 122]
